Assay results from US9796711B2, “Substituted pyrazolo[3,4-b]pyridin-6-carboxylic acids and method of use” (AbbVie S.àr.l., priority 2015, dated 2017).

Columns and labels:
[1] = molecular target: T1, ΔF508-CFTR (Homo sapiens, UniProt P13569, DEL508-508); assay: CFTR cell surface levels using HRP-tagged ΔF508-CFTR expressing CFBE cells, in the presence of a co-corrector; assay type: cell-based
T1 construct: host or cells: CFBE41o-, doxycycline-inducible
Method in brief: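 Cells were seeded with 0.5 μg/mL doxycycline and held 68 h at 37 °C. Test compounds plus 3 μM co-corrector (final 0.1% DMSO) were then added for 20 h at 33 °C. Washed cells received HRP substrate, and luminescence was normalized between DMSO and 3 μM co-corrector controls.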

[2] = molecular target: T1, ΔF508-CFTR; assay: CFTR cell surface levels using HRP-tagged ΔF508-CFTR expressing CFBE cells, intrinsic corrector capacity; assay type: cell-based
Method in brief: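 Here the cells express ΔF508-CFTR with horseradish peroxidase inserted in extracellular loop 4, so only rescued channel at the surface gives luminescent signal. Compounds act on their own, 20 h at the reduced temperature of 33 °C; values are percent activity relative to DMSO and a 3 μM corrector.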

[3] = HRP-tagged ΔF508-CFTR expressing CFBE cells, in the presence of 3 μM co-corrector
[4] = HRP-tagged ΔF508-CFTR expressing CFBE cells, in the presence of 3 μM co-corrector, read-out: EC50
[5] = HRP-tagged ΔF508-CFTR expressing CFBE cells, intrinsic corrector capacity (no co-corrector), 33° C., 20 hours
[6] = HRP-tagged ΔF508-CFTR expressing CFBE cells, intrinsic corrector capacity (no co-corrector), 33° C., 20 hours, read-out: EC50
[7] = HRP-tagged ΔF508-CFTR CFBE41o- cells, compounds alone (intrinsic corrector capacity), 20 hours at 33° C., positive control 3 μM corrector
[8] = HRP-tagged ΔF508-CFTR CFBE41o- cells, compounds alone (intrinsic corrector capacity), 20 hours at 33° C., read-out: EC50

T1 sequence (P13569 with tags, fused parts or gaps DEL508-508): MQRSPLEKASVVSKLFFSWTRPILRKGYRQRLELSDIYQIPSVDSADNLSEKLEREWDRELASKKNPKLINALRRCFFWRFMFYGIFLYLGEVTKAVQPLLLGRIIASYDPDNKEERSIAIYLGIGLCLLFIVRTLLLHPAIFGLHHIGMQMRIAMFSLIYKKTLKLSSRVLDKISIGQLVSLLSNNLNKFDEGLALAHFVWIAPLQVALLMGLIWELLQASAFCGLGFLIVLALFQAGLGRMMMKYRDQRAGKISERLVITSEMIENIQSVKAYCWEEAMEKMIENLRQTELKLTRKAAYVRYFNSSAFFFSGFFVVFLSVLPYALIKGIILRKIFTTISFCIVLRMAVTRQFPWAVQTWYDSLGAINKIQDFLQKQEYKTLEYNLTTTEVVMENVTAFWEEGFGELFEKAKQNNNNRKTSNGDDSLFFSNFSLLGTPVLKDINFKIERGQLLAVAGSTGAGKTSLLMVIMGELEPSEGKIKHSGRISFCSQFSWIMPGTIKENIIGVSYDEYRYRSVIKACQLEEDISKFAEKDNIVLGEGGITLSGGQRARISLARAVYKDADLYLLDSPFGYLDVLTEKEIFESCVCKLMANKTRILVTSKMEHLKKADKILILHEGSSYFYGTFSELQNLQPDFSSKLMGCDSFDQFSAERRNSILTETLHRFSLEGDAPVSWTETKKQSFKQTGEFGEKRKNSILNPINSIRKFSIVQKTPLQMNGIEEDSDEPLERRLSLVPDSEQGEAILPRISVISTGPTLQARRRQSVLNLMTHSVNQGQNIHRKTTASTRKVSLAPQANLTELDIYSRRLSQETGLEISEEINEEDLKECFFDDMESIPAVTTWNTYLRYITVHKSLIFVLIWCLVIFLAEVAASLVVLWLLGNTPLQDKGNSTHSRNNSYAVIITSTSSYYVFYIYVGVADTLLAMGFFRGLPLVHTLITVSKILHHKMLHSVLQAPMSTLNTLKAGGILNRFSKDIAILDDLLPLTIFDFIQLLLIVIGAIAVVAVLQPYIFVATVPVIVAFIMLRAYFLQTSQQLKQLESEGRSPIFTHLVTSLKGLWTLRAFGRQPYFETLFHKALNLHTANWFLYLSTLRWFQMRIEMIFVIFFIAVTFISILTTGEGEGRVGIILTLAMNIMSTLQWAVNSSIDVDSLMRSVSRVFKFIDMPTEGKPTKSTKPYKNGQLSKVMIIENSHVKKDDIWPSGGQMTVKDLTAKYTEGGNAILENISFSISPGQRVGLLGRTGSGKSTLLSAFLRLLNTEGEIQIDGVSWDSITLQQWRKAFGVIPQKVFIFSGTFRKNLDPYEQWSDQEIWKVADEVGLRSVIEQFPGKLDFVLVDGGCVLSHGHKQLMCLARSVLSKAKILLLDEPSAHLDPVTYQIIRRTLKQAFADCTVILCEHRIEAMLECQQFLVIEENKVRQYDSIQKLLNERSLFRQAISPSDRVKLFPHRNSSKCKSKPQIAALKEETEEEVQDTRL

Structure (SMILES) | % Activation [1, 3] | EC50 [1, 4] | % Activation [2, 5] | EC50 [2, 6] | % Activation [2, 7] | EC50 [2, 8] | EC50 [1] | EC50 [2]
CN1CCN(CCCOc2cc(C(=O)O)nc3c2c(C2CCC2)nn3-c2ccccc2)CC1 [compound 634, 3-cyclobutyl-4-[3-(4-methylpiperazin-1-yl)propoxy]-1-phenyl-1H-pyrazolo[3,4-b]pyridine-6-carboxylic acid] | 294.7% | 2570 nM | 122.2% | 3330 nM | – | – | – | –
Cc1nn(-c2ccccc2)c2nc(C(=O)O)cc(-c3ccc(N4C[C@@H]5C[C@H]4CO5)cc3)c12 [compound 127, 3-methyl-4-{4-[(1S,4S)-2-oxa-5-azabicyclo[2.2.1]heptan-5-yl]phenyl}-1-phenyl-1H-pyrazolo[3,4-b]pyridine-6-carboxylic acid] | 401.3% | 719 nM | – | – | 221.4% | 1790 nM | – | –
Cc1nn(-c2ccccc2)c2nc(C(=O)O)cc(N3CCN(C(=O)N4CCOCC4)CC3)c12 [compound 322, 3-methyl-4-[4-(morpholine-4-carbonyl)piperazin-1-yl]-1-phenyl-1H-pyrazolo[3,4-b]pyridine-6-carboxylic acid] | 154.55% | 3340 nM | – | – | 12.25% | > 10000 nM | – | –
CC(C)c1nn(-c2ccc(F)cc2)c2nc(C(=O)O)cc(N3CCC4(CC3)OCCO4)c12 [compound 782, 4-(1,4-dioxa-8-azaspiro[4.5]decan-8-yl)-1-(4-fluorophenyl)-3-(propan-2-yl)-1H-pyrazolo[3,4-b]pyridine-6-carboxylic acid] | 345.2% | 272 nM | 174.4% | 673 nM | – | – | – | –
CS(=O)(=O)NC1CCN(c2cc(C(=O)O)nc3c2c(C2CCC2)nn3-c2ccccc2)CC1 [compound 519, 3-cyclobutyl-4-{4-[(methanesulfonyl)amino]piperidin-1-yl}-1-phenyl-1H-pyrazolo[3,4-b]pyridine-6-carboxylic acid] | 340.6% | 3330 nM | 149.3% | 3340 nM | – | – | – | –
CN(C)c1ccc(-c2cc(C(=O)O)nc3c2c(C(C)(C)C)nn3C2CCCCC2)cc1 [compound 131, 3-tert-butyl-1-cyclohexyl-4-[4-(dimethylamino)phenyl]-1H-pyrazolo[3,4-b]pyridine-6-carboxylic acid] | 388.7% | 620 nM | – | – | 153.75% | 899 nM | – | –
CC(C)c1nn(-c2ccc(OC(F)(F)F)cc2)c2nc(C(=O)O)cc(-c3ccc(N4CCOCC4)cc3)c12 [compound 43, 4-[4-(morpholin-4-yl)phenyl]-3-(propan-2-yl)-1-[4-(trifluoromethoxy)phenyl]-1H-pyrazolo[3,4-b]pyridine-6-carboxylic acid] | 360.8% | 371 nM | – | – | 187.4% | 408 nM | – | –
O=C(O)c1cc(N2CCC3(C2)CC3(F)F)c2c(C3CCC3)nn(-c3ccccc3)c2n1 (stereo not drawn) [compound 423, 3-cyclobutyl-4-(1,1-difluoro-5-azaspiro [2. 4]heptan-5-yl)-1-phenyl-1H-pyrazolo[3,4-b]pyridine-6-carboxylic acid] | 299.25% | 920 nM | 113.4% | 934 nM | – | – | – | –
CC(=O)N1CCC(Oc2cc(C(=O)O)nc3c2c(C2CCC2)nn3-c2ccccc2)CC1 [compound 612, 4-[(1-acetylpiperidin-4-yl)oxy]-3-cyclobutyl-1-phenyl-1H-pyrazolo[3,4-b]pyridine-6-carboxylic acid] | 266.9% | 1180 nM | 109.5% | 3330 nM | – | – | – | –
CC(C)c1nn(-c2ccnc(N3CCCC3)c2)c2nc(C(=O)O)cc(-c3ccc(N4CCC(C#N)CC4)cc3)c12 [compound 392, 4-[4-(4-cyanopiperidin-1-yl)phenyl]-3-(propan-2-yl)-1-[2-(pyrrolidin-1-yl)pyridin-4-yl]-1H-pyrazolo[3,4-b]pyridine-6-carboxylic acid] | 519.35% | 323 nM | – | – | 302% | 345 nM | – | –
O=C(O)c1cc(OCCCN2CCCCC2)c2c(C3CCC3)nn(-c3ccccc3)c2n1 [compound 642, 3-cyclobutyl-1-phenyl-4-[3-(piperidin-1-yl)propoxy]-1H-pyrazolo[3,4-b]pyridine-6-carboxylic acid] | 281.95% | 2400 nM | 125.9% | 3330 nM | – | – | – | –
O=C(O)c1cc(-c2ccc(N3CCOCC3)cc2)c2c(C3CCCO3)nn(-c3ccccc3)c2n1 (stereo not drawn) [compound 186, 4-[4-(morpholin-4-yl)phenyl]-3-(oxolan-2-yl)-1-phenyl-1H-pyrazolo[3,4-b]pyridine-6-carboxylic acid] | 378.4% | 1260 nM | – | – | 168.7% | 1870 nM | – | –
COCCN(C)c1ccc(-c2cc(C(=O)O)nc3c2c(C(C)C)nn3-c2cccc(N3CCOCC3)c2)cn1 [compound 179] | 548% | 978 nM | – | – | 329.25% | 2820 nM | – | –
O=C(O)c1cc(N2CCC(N3CCOCC3)CC2)c2c(C3CCC3)nn(-c3ccnc(OC(F)F)c3)c2n1 [compound 889, 3-cyclobutyl-1-[2-(difluoromethoxy)pyridin-4-yl]-4-[4-(morpholin-4-yl)piperidin-1-yl]-1H-pyrazolo[3,4-b]pyridine-6-carboxylic acid] | 449.8% | 241 nM | 229.2% | 404 nM | – | – | – | –
Cc1cccc(-n2nc(C(C)C)c3c(N4CC5(CCC5)C4)cc(C(=O)O)nc32)c1 [compound 273, 4-(2-azaspiro[3.3]heptan-2-yl)-1-(3-methylphenyl)-3-(propan-2-yl)-1H-pyrazolo[3,4-b]pyridine-6-carboxylic acid] | 311.05% | 985 nM | – | – | 100.16% | 1020 nM | – | –
O=C(O)c1cc(N2CCC(N3CCOCC3)CC2)c2c(C3CCC3)nn(-c3cccc(C(F)(F)F)c3)c2n1 [compound 826, 3-cyclobutyl-4-[4-(morpholin-4-yl)piperidin-1-yl]-1-[3-(trifluoromethyl)phenyl]-1H-pyrazolo[3,4-b]pyridine-6-carboxylic acid] | 528.15% | 102 nM | 314.4% | 157 nM | – | – | – | –
O=C(O)c1cc(OCC2CCCCC2)c2c(C3CCC3)nn(-c3ccccc3)c2n1 [compound 407, 3-cyclobutyl-4-(cyclohexylmethoxy)-1-phenyl-1H-pyrazolo[3,4-b]pyridine-6-carboxylic acid] | 323.95% | 662 nM | 125.25% | 925 nM | – | – | – | –
CC(C)c1nn(-c2cccc(N(C)C)c2)c2nc(C(=O)O)cc(-c3ccc(N4CCC(C#N)CC4)cc3)c12 [compound 176] | 619.28% | 448 nM | – | – | 382.28% | 528 nM | – | –
O=C(O)c1cc(OCCOC2COC2)c2c(C3CCC3)nn(-c3ccccc3)c2n1 [compound 483, 3-cyclobutyl-4-{2-[(oxetan-3-yl)oxy]ethoxy}-1-phenyl-1H-pyrazolo[3,4-b]pyridine-6-carboxylic acid] | 267% | 367 nM | 142.4% | 897 nM | – | – | – | –
O=C(O)c1cc(N2C[C@@H](F)C[C@H]2CO)c2c(C3CCC3)nn(-c3ccccc3)c2n1 [compound 507, 3-cyclobutyl-4-[(2S,4S)-4-fluoro-2-(hydroxymethyl)pyrrolidin-1-yl]-1-phenyl-1H-pyrazolo[3,4-b]pyridine-6-carboxylic acid] | 218.3% | 2520 nM | 132.8% | 2170 nM | – | – | – | –
CC(C)Oc1nn(C2CCCCC2)c2nc(C(=O)O)cc(-c3ccc(C(=O)N4CCN(C)CC4)cc3)c12 [compound 764, 1-cyclohexyl-4-[4-(4-methylpiperazine-1-carbonyl)phenyl]-3-[(propan-2-yl)oxy]-1H-pyrazolo[3,4-b]pyridine-6-carboxylic acid] | 255.65% | 2410 nM | 85.92% | 3330 nM | – | – | – | –
CN(C)CCCCOc1cc(C(=O)O)nc2c1c(C1CCC1)nn2-c1ccccc1 [compound 611, 3-cyclobutyl-4-[4-(dimethylamino)butoxy]-1-phenyl-1H-pyrazolo[3,4-b]pyridine-6-carboxylic acid] | 278.1% | 2930 nM | 104.6% | 3330 nM | – | – | – | –
Cc1nn(C2CCCC2)c2nc(C(=O)O)cc(-c3ccc(N4CCOCC4)nc3)c12 [compound 106, 1-cyclopentyl-3-methyl-4[6-(morpholin-4-yl)pyridin-3-yl]-1H-pyrazolo[3,4-b]pyridine-6-carboxylic acid] | 237.45% | 2620 nM | – | – | 73% | 3340 nM | – | –
O=C(O)c1cc(N2CCC[C@@H](CO)C2)c2c(C3CCC3)nn(-c3ccccc3)c2n1 [compound 544, 3-cyclobutyl-4-[(3R)-3-(hydroxymethyl)piperidin-1-yl]-1-phenyl-1H-pyrazolo[3,4-b]pyridine-6-carboxylic acid] | 273% | – | 129.55% | – | – | – | 457 nM | 803 nM
